How the values were obtained:
[1] = tested on: S. pyogenes [American Type Culture Collection (ATCC) # 14289]; experiment: Streptococcus pyogenes bacterial growth assay (Tier I antimicrobial); format: cell-based; details: read-out: inhibition in the S. pyogenes procedure
Protocol: S. pyogenes [American Type Culture Collection (ATCC) # 14289] is used in this bacterial growth assay. To initiate the exponential phase of bacterial growth prior to the assay, a sample of bacteria is grown for 6 hours in Todd Hewitt Broth (Difco 0492-17-6) at 37° C. then re-inoculated into fresh media and grown overnight at 37° C. The bacterial cells are collected by centrifugation for 10 minutes at 3200 rpm, diluted and absorbance read at 595 nm. Bacteria diluted in 2× Todd-Hewitt Broth (75 μL) are added to the compound mixtures (75 μL) for a total volume of 150 μL. The assays are performed in 96-well microplates with approximately 1×10^4 colony forming units (CFU) per well. The plates are incubated at 37° C. and growth monitored over a 24 hour period by measuring the optical density at 595 nm using a BioRad model 3550 UV microplate reader. The percentage of growth relative to a well containing no test compound or library is determined. Ampicillin and tetracycline antibiotic controls are concurrently tested in each screening assay.
Compounds are assayed in duplicate at a single dose. Compounds which show inhibitory activity are re-tested in duplicate at multiple doses to determine minimum inhibitory concentration (MIC).

E. coli imp- = E. coli imp- bacterial growth assay (Tier I antimicrobial); format: cell-based; details: Escherichia coli, read-out: inhibition in the E. coli procedure
Protocol: The strain E. coli imp- obtained from Spencer Benson (Sampson, B. A., Misra, R. & Benson, S. A., Genetics, 1989, 122, 491-501, Identification and characterization of a new gene of Escherichia coli K-12 involved in outer membrane permeability) is used in this bacterial growth assay. To initiate the exponential phase of bacterial growth prior to the assay, a sample of bacteria is grown for 6 hours in Mueller Hinton II Broth (BBL 12322) at 37° C. then re-inoculated into fresh media and grown overnight at 37° C. The bacterial cells are collected by centrifugation for 10 minutes at 3200 rpm, diluted and absorbance read at 595 nm. Bacteria diluted in 2× Mueller Hinton II Broth (75 μL) are added to the compound mixtures (75μL) for a total volume of 150 μL. The assays are performed in 96-well microplates with approximately 1×10^4 colony forming units (CFU) per well. The plates are incubated at 37° C. and growth monitored over a 24 hour period by measuring the optical density at 595 nm using a BioRad model 3550 UV microplate reader. The percentage of growth relative to a well containing no compound is determined. Ampicillin and tetracycline antibiotic controls are concurrently tested in each screening assay.
Compounds are assayed in duplicate at a single dose. […]

## N=C(N)NCc1cccc(CN(CCNCCCO)Cc2cccc(C(F)(F)F)c2)n1 [Example 71]
[1]
  inhibition at 100 µM: 95%

## NC(=O)CN(Cc1cccc(C(F)(F)F)c1)Cc1cccc(CN(CCNCCCO)Cc2cccc(C(F)(F)F)c2)n1 [Example 66]
[1]
  inhibition at 100 µM: 95%
E. coli imp-
  inhibition at 100 µM: 87%

— US6191273A, “Substituted cyclic compounds and mixtures comprising same” (Isis Pharmaceuticals, Inc., priority 1998, dated 2001)
